Values quoted from earlier work as cited in paper PMC6151740, “Pharmacokinetics, Tissue Distribution, and Elimination of Three Active Alkaloids in Rats after Oral Administration of the Effective Fraction of Alkaloids from Ramulus Mori, an Innovative Hypoglycemic Agent” (Molecules : A Journal of Synthetic Chemistry and Natural …, 2017).

Details: DNJ 110 mg/kg ingested; cited from earlier work

## OC[C@H]1NC[C@H](O)[C@@H](O)[C@@H]1O [DNJ, 1-deoxynojirimycin]
  fraction of ingested DNJ incorporated into the rat plasma: 1%
